Results reported in the supplement of paper PMC10307832.

Tests used:
Test in all cases: relative viability (nuclei count vs DMSO), 5 days (fraction); higher = more cells survive
[1] = tested on: LU99A
In short: (§1)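 Five library-drug doses in √10 steps were combined with a fixed anchor-drug dose, or a single drug was given alone, by pin tool to lung cancer cell lines in 1536-well plates the day after seeding. Nuclei were stained and counted after 5 days. Relative viability is the nuclei count in treated wells over that in vehicle wells, taken as the median of duplicate plates.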

[2] = tested on: NCI-H1355
In short: as §1

[3] = tested on: UMC-11
In short: as §1

[4] = tested on: LC-2-ad
In short: as §1

[5] = tested on: EPLC-272H
In short: as §1

[6] = tested on: NCI-H1651
In short: as §1

[7] = tested on: COR-L23
In short: as §1

[8] = tested on: NCI-H2347
In short: as §1

[9] = tested on: NCI-H2126
In short: as §1

[10] = tested on: NCI-H838
In short: as §1

[11] = tested on: NCI-H2085
In short: as §1

[12] = tested on: NCI-H650
In short: as §1

[13] = tested on: HARA
In short: as §1

[14] = tested on: HCC-78
In short: as §1

[15] = tested on: NCI-H2023
In short: as §1

[16] = tested on: PC-14
In short: as §1

[17] = tested on: HCC-15
In short: as §1

[18] = tested on: SW 1573
In short: as §1

[19] = tested on: NCI-H358
In short: as §1

[20] = tested on: ABC-1
In short: as §1

[21] = tested on: NCI-H1915
In short: as §1

[22] = tested on: NCI-H1993
In short: as §1

## Oc1nc(-c2ccc(C(F)(F)F)cc2)nc2c1CSCC2 [XAV939] + C[C@]1(O)C[C@@H](c2nc(-c3ccc4ccc(-c5ccccc5)nc4c3)c3c(N)nccn32)C1 [Linsitinib] (partner 1 µM)
[1]; first compound 0.08 µM
  relative viability: 0.556
[1]; first compound 0.253 µM
  relative viability: 0.446
[1]; first compound 0.8 µM
  relative viability: 0.505
[1]; first compound 2.53 µM
  relative viability: 0.44
[2]; first compound 0.08 µM
  relative viability: 0.867
[2]; first compound 0.253 µM
  relative viability: 0.783
[2]; first compound 0.8 µM
  relative viability: 0.82
[2]; first compound 2.53 µM
  relative viability: 0.666
[3]; first compound 0.08 µM
  relative viability: 1.25
[3]; first compound 0.8 µM
  relative viability: 0.952
[3]; first compound 2.53 µM
  relative viability: 0.854
[4]; first compound 0.08 µM
  relative viability: 0.873
[4]; first compound 0.253 µM
  relative viability: 0.797
[4]; first compound 0.8 µM
  relative viability: 0.819
[4]; first compound 2.53 µM
  relative viability: 0.73
[5]; first compound 0.08 µM
  relative viability: 1.3
[5]; first compound 0.253 µM
  relative viability: 1.08
[5]; first compound 0.8 µM
  relative viability: 1.18
[5]; first compound 2.53 µM
  relative viability: 1.09
[6]; first compound 0.08 µM
  relative viability: 1.01
[6]; first compound 0.253 µM
  relative viability: 0.799
[6]; first compound 0.8 µM
  relative viability: 0.915
[6]; first compound 2.53 µM
  relative viability: 0.875
[7]; first compound 0.08 µM
  relative viability: 0.962
[7]; first compound 0.253 µM
  relative viability: 0.785
[7]; first compound 0.8 µM
  relative viability: 0.969
[7]; first compound 2.53 µM
  relative viability: 0.809
[8]; first compound 0.08 µM
  relative viability: 1.08
[8]; first compound 0.253 µM
  relative viability: 0.997
[8]; first compound 0.8 µM
  relative viability: 0.931
[8]; first compound 2.53 µM
  relative viability: 1
[9]; first compound 0.08 µM
  relative viability: 0.727
[9]; first compound 0.253 µM
  relative viability: 0.61
[9]; first compound 0.8 µM
  relative viability: 0.672
[9]; first compound 2.53 µM
  relative viability: 0.642
[10]; first compound 0.08 µM
  relative viability: 1.02
[10]; first compound 0.253 µM
  relative viability: 0.901
[10]; first compound 0.8 µM
  relative viability: 0.839
[10]; first compound 2.53 µM
  relative viability: 0.719
[11]; first compound 0.08 µM
  relative viability: 0.811
[11]; first compound 0.253 µM
  relative viability: 0.771
[11]; first compound 0.8 µM
  relative viability: 0.91
[11]; first compound 2.53 µM
  relative viability: 0.888
[12]; first compound 0.08 µM
  relative viability: 1.13
[12]; first compound 0.253 µM
  relative viability: 1.07
[12]; first compound 0.8 µM
  relative viability: 0.911
[12]; first compound 2.53 µM
  relative viability: 0.857
[13]; first compound 0.08 µM
  relative viability: 1.25
[13]; first compound 0.253 µM
  relative viability: 0.414
[13]; first compound 0.8 µM
  relative viability: 0.779
[13]; first compound 2.53 µM
  relative viability: 0.956
[14]; first compound 0.08 µM
  relative viability: 0.59
[14]; first compound 0.253 µM
  relative viability: 0.448
[14]; first compound 0.8 µM
  relative viability: 0.616
[14]; first compound 2.53 µM
  relative viability: 0.443
[15]; first compound 0.08 µM
  relative viability: 0.699
[15]; first compound 0.253 µM
  relative viability: 0.626
[15]; first compound 0.8 µM
  relative viability: 0.625
[15]; first compound 2.53 µM
  relative viability: 0.447
[16]; first compound 0.08 µM
  relative viability: 0.954
[16]; first compound 0.253 µM
  relative viability: 0.831
[16]; first compound 0.8 µM
  relative viability: 1.04
[16]; first compound 2.53 µM
  relative viability: 0.844
[17]; first compound 0.08 µM
  relative viability: 0.923
[17]; first compound 0.253 µM
  relative viability: 0.851
[17]; first compound 0.8 µM
  relative viability: 0.859
[17]; first compound 2.53 µM
  relative viability: 0.848
[18]; first compound 0.08 µM
  relative viability: 0.78
[18]; first compound 0.253 µM
  relative viability: 0.675
[18]; first compound 0.8 µM
  relative viability: 0.739
[18]; first compound 2.53 µM
  relative viability: 0.635
[19]; first compound 0.08 µM
  relative viability: 0.832
[19]; first compound 0.253 µM
  relative viability: 0.551
[19]; first compound 0.8 µM
  relative viability: 0.655
[19]; first compound 2.53 µM
  relative viability: 0.558
[20]; first compound 0.08 µM
  relative viability: 0.915
[20]; first compound 0.253 µM
  relative viability: 0.733
[20]; first compound 0.8 µM
  relative viability: 0.809
[20]; first compound 2.53 µM
  relative viability: 0.315
[21]; first compound 0.08 µM
  relative viability: 1.13
[21]; first compound 0.253 µM
  relative viability: 1.11
[21]; first compound 0.8 µM
  relative viability: 1.04
[21]; first compound 2.53 µM
  relative viability: 1.11
[22]; first compound 0.8 µM
  relative viability: 0.754
[22]; first compound 2.53 µM
  relative viability: 0.719
